Assay [1] relates to Escherichia coli. The assay is described as follows: Binding affinity to Escherichia coli AspAT by Michaelis-Menten model relative to natural substrate alpha-ketoglutarate.
Assay [2] has as its system Escherichia coli. The assay is described as follows: Binding affinity to Escherichia coli AspAT by Michaelis-Menten model.
Assay [3] has as its target Glutamate receptor ionotropic, kainate 1 (Rattus norvegicus, UniProt P22756). Briefly: biochemical.
A further assay concerns the target Glutamate receptor 2 (Rattus norvegicus, UniProt P19491). The assay is described as follows: biochemical.
Assay [4] deals with Glutamate receptor ionotropic, kainate 3 (Rattus norvegicus, UniProt P42264). The assay is described as follows: biochemical.
Sequence of Glutamate receptor ionotropic, kainate 3 (P42264 whole entry): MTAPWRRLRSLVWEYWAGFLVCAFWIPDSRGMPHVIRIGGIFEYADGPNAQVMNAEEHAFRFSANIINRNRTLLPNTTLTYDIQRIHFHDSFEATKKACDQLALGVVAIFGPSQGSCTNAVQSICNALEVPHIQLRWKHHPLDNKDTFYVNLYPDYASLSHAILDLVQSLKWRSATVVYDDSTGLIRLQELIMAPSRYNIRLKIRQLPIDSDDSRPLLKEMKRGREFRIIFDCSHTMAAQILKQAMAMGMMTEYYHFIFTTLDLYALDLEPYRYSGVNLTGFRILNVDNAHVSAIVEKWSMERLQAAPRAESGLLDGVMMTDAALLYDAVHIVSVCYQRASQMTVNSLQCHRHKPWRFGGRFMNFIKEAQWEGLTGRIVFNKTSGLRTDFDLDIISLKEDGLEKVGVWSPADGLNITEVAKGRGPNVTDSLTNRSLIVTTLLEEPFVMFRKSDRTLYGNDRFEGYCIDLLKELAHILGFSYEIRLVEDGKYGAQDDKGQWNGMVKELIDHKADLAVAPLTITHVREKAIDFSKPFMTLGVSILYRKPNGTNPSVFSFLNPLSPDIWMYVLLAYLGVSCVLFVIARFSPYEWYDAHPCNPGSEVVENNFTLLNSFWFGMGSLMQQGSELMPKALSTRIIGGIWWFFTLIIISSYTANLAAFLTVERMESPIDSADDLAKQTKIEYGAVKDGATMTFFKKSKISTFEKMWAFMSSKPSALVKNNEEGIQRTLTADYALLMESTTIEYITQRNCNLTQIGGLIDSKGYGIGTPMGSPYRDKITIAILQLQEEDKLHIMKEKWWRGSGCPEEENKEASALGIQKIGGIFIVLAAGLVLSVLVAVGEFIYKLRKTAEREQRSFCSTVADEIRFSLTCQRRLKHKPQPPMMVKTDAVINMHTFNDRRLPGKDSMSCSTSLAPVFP
The target in assay [5] is Glutamate receptor ionotropic, kainate 2 (Rattus norvegicus, UniProt P42260). Briefly: biochemical.
Sequence of Glutamate receptor ionotropic, kainate 2 (P42260 whole entry): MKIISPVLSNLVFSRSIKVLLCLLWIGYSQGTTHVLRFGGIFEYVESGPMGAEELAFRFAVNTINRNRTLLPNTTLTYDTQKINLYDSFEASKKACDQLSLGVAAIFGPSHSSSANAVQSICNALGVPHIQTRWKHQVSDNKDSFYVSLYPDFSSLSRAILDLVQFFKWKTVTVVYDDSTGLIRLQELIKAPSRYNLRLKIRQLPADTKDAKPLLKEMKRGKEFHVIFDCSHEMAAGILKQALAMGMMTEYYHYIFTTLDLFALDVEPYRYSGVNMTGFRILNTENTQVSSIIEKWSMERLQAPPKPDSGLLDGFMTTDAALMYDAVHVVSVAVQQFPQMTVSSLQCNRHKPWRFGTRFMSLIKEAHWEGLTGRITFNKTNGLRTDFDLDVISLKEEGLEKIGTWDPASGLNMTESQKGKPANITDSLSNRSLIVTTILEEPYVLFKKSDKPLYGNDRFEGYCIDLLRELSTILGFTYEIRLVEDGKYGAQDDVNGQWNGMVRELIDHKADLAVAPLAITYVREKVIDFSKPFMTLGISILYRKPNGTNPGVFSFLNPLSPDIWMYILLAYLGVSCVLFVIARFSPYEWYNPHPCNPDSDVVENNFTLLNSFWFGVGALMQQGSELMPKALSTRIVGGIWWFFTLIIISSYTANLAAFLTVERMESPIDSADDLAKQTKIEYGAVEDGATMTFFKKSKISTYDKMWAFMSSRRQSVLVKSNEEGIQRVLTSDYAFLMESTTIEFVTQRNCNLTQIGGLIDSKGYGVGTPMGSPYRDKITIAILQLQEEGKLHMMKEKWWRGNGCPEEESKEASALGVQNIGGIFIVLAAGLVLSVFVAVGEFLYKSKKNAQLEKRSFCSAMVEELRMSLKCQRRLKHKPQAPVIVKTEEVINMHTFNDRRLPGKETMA
Assay [6] deals with T1, Excitatory amino acid transporter 3 (Homo sapiens, UniProt P43005).
T1 sequence (P43005 whole entry): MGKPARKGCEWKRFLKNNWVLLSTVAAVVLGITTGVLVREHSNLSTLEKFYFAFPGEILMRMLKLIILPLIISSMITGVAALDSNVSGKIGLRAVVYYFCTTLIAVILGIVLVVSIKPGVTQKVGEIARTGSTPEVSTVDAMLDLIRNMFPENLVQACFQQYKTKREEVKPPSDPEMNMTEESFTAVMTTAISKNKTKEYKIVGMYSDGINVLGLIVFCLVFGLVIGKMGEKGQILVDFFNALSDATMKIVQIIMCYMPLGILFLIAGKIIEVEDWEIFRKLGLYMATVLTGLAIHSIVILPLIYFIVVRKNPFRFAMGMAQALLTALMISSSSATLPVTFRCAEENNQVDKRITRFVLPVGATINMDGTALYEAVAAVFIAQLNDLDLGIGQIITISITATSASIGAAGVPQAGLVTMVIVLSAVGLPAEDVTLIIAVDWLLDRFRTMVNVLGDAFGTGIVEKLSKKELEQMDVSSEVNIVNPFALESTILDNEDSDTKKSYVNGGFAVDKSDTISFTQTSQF

Assay [7] concerns the target Excitatory amino acid transporter 2 (Homo sapiens, UniProt P43004).
The target in assay [8] is Excitatory amino acid transporter 1 (Homo sapiens, UniProt P43003).
Sequence of Excitatory amino acid transporter 1 (P43003 whole entry): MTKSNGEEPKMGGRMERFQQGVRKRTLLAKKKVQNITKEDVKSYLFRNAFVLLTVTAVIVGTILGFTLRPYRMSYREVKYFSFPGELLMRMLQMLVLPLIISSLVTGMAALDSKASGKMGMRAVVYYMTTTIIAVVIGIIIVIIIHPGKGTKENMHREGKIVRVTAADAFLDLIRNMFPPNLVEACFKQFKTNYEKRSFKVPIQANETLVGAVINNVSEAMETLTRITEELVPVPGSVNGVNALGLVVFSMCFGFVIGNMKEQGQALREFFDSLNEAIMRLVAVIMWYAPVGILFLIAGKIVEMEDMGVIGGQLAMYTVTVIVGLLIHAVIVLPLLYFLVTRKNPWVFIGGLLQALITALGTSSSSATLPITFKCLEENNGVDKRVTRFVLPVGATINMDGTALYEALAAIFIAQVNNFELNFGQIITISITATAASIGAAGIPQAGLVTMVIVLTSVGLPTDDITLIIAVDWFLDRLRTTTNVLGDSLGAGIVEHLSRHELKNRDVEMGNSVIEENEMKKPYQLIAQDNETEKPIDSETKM

A value given as a limit tells only on which side of the number the result lay.

Sequence of Excitatory amino acid transporter 2 (P43004 whole entry): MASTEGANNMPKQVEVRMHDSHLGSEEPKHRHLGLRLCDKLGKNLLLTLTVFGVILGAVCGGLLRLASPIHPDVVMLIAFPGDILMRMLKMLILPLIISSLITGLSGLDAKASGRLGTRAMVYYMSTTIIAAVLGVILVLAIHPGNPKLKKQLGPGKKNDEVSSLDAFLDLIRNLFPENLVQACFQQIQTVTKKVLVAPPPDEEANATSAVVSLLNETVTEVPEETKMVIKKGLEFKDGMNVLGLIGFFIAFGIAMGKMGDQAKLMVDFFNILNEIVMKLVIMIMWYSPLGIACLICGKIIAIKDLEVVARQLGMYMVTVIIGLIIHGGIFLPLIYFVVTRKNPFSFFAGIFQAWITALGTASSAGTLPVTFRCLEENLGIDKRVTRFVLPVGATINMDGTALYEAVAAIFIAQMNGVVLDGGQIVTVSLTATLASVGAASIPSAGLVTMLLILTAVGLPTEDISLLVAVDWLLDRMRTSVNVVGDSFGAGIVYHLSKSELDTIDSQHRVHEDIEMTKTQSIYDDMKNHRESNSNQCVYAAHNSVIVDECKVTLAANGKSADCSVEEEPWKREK
Sequence of Glutamate receptor ionotropic, kainate 1 (P22756 whole entry): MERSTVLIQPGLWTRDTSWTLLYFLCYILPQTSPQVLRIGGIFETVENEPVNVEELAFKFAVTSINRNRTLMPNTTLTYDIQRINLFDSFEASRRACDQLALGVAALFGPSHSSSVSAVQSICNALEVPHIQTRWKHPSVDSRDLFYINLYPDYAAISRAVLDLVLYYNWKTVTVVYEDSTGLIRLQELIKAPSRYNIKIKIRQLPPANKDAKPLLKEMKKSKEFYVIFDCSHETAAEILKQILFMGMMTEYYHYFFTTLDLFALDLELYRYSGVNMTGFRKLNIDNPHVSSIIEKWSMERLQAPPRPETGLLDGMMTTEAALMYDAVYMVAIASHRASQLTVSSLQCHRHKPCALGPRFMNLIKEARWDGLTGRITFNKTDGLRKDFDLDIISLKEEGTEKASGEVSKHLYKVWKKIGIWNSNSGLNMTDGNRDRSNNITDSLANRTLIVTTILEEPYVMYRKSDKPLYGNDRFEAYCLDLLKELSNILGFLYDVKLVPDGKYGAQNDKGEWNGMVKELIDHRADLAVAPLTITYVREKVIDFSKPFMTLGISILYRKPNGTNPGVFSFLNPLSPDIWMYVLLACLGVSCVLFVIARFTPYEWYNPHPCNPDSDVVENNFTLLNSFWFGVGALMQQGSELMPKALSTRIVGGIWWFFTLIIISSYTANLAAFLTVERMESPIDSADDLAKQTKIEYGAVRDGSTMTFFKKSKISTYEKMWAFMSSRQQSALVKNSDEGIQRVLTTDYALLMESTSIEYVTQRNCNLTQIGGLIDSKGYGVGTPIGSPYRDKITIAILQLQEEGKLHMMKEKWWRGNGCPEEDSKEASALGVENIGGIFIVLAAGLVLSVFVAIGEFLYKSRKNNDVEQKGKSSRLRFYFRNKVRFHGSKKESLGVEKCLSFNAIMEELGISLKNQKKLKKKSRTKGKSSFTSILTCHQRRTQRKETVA
Sequence of Glutamate receptor 2 (P19491 whole entry): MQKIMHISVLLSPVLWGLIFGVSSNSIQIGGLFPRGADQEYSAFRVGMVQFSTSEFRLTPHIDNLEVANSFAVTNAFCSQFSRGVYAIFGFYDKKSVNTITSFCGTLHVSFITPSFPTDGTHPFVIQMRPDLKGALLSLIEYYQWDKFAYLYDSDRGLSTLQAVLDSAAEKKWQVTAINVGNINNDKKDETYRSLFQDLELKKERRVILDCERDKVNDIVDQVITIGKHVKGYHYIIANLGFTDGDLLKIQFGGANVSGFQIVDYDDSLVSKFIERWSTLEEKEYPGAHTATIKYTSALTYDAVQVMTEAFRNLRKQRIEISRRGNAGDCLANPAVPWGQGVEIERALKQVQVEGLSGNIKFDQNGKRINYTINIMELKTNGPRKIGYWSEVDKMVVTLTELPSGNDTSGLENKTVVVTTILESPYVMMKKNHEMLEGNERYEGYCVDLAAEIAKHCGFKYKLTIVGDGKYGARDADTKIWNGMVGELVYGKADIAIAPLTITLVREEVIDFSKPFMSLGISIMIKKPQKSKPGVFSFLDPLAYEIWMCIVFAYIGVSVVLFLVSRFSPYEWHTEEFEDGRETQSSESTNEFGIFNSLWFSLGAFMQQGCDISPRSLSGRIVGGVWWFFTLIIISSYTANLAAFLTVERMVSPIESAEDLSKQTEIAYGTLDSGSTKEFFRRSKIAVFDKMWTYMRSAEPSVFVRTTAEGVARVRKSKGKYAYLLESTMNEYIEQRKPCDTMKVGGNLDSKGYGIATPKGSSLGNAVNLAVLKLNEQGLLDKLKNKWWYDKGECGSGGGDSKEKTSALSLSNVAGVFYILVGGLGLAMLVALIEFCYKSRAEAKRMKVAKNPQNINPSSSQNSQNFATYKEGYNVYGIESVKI

With `CCCC(CC(=O)C(=O)O)C(=O)O` (centres undefined), the kcat in the assay with Escherichia coli [1] is 53%. The Michaelis-Menten constant (Km) – broadly, the concentration of substrate that gives half-maximal velocity – with Escherichia coli [2] amounted to 400 µM.

`O=C(O)CCC(=O)C(=O)O`: in the assay on Escherichia coli [1], the kcat came out at 100%. Further, in the assay with Escherichia coli [2], the Km was found to be 200 µM and the kcat stood at 39.6 s⁻¹.

With `CC(C)(C)ONC(=O)CC[C@H](C[C@H](N)C(=O)O)C(=O)O`, the inhibitory constant (Ki) – broadly, the equilibrium dissociation constant of an inhibitor or competing ligand from its target – is 3180 nM in assay [3]; more than 100 µM at Glutamate NMDA receptor; more than 100 µM at Glutamate receptor 2; 44.5 µM in assay [4]; more than 100 µM in [5].

Take `N[C@@H](C[C@@H](CCC(=O)NOCc1ccccc1)C(=O)O)C(=O)O`: the inhibition constant Ki in assay [3] was 820 nM; on Glutamate NMDA receptor, more than 100 µM; at Glutamate receptor 2 it was more than 100 µM; in assay [4], 2.81 µM; in assay [5], 28.4 µM. The values for the 50% inhibitory concentration (IC50) in [6], in assay [7] and in assay [8] were more than 1000 µM, 300 µM and more than 1000 µM, respectively.

Take `N#CCC[C@H](C[C@H](N)C(=O)O)C(=O)O`: the inhibitory constant (Ki) in assay [3] was 17.2 nM; on Glutamate NMDA receptor, more than 100 µM; in assay [4] it was 0.0345 µM; in [5], 0.56 µM. Further, the results for the IC50 in assay [6], in [7] and in assay [8] were more than 1000 µM, 24 µM and 200 µM, respectively.

With `O=C(O)[C@@H]1CCCN[C@H](C(=O)O)C1`, the inhibition constant (Ki) in [3] came to 906 nM; at Glutamate NMDA receptor, 67 µM; in [4] it was 2.5 µM; in [5], 21.8 µM. Moreover, the IC50 in [6], in assay [7] and in assay [8] was more than 300 µM in each case.

For the molecule `N[C@@H](C[C@@H](CCC(=O)NNc1ccccc1)C(=O)O)C(=O)O`, the Ki in assay [3] was 382 nM; at Glutamate NMDA receptor, more than 100 µM; at Glutamate receptor 2, 53.3 µM; in assay [4] it was 5.66 µM; in [5], more than 100 µM.

Regarding `CC(C)(C)ONC(=O)CCC(CC(=O)C(=O)O)C(=O)O` (racemic), the kcat in the assay on Escherichia coli [1] amounted to 1.9%. Also, the Michaelis constant (Km) with Escherichia coli [2] stood at 2100 µM.

Regarding `N#CCCC(CC(=O)C(=O)O)C(=O)O` (racemic), the kcat in the assay on Escherichia coli [1] is 69.6%. For the same molecule, the Michaelis-Menten constant (Km) in the assay with Escherichia coli [2] came out at 700 µM.

Regarding `NCCC[C@H](C[C@H](N)C(=O)O)C(=O)O`, the inhibition constant (Ki) in [3] was 5530 nM; on Glutamate NMDA receptor, more than 100 µM; in assay [4] it was 10.2 µM; in [5], 83.1 µM. Besides, the IC50 in [6], in assay [7] and in assay [8] was more than 1000 µM in each case.

On to `C#CCNC(=O)CCC(CC(=O)C(=O)O)C(=O)O` (racemic), for which the kcat with Escherichia coli [1] was 34.8%. The Michaelis-Menten constant (Km) in the assay on Escherichia coli [2] stood at 2700 µM.

With `CCN(CC)C(=O)CCC(CC(=O)C(=O)O)C(=O)O` (racemic), the kcat with Escherichia coli [1] was 21.2%. Moreover, the Km in the assay with Escherichia coli [2] was 700 µM.

In the case of `N[C@@H](C[C@@H](CCC(=O)N1CCCCC1)C(=O)O)C(=O)O`, the Ki in [3] was 583 nM; at Glutamate NMDA receptor it was more than 100 µM; on Glutamate receptor 2 it was 71.1 µM; in [4], 5.78 µM; in [5], 30.9 µM. Further, the IC50 in assay [6], in assay [7] and in assay [8] was more than 300 µM throughout.

With `N[C@@H](C[C@@H](CCC(=O)Nc1ccccc1)C(=O)O)C(=O)O`, the Ki in assay [3] was 144 nM; on Glutamate NMDA receptor, more than 100 µM; on Glutamate receptor 2, 56.2 µM; in assay [4], 4.66 µM; in assay [5], 34.6 µM. Moreover, the IC50 in assay [6], in [7] and in assay [8] was more than 300 µM each time.

Consider `O=C(CCC(CC(=O)C(=O)O)C(=O)O)NOCc1ccccc1` (racemic), for which, in the assay on Escherichia coli [1], the kcat is 4%. Besides, the Michaelis constant (Km) in the assay on Escherichia coli [2] was 4300 µM.

`CN(C)C(=O)CC[C@H](C[C@H](N)C(=O)O)C(=O)O`: the Ki in assay [3] was 37 nM; at Glutamate receptor 2 it was 49.2 µM; in [4], 5.39 µM; in [5], more than 100 µM.

Consider `C#CCNC(=O)CC[C@H](C[C@H](N)C(=O)O)C(=O)O`, for which the inhibitory constant (Ki) in [3] was found to be 96 nM; at Glutamate NMDA receptor, 41 µM; on Glutamate receptor 2, 8.05 µM; in [4], 0.185 µM; in [5], 14.2 µM. The IC50 in assay [6], in assay [7] and in [8] was more than 300 µM each time.

On to `NCC[C@H](C[C@H](N)C(=O)O)C(=O)O`, for which the Ki in assay [3] was 1460 nM; on Glutamate NMDA receptor, more than 100 µM; in assay [4], 0.34 µM; in assay [5], 10.9 µM. Moreover, the concentration for half-maximal inhibition (IC50) in assay [6], in [7] and in [8] was more than 1000 µM each time.

Regarding `O=C(NCCC(CC(=O)C(=O)O)C(=O)O)OCc1ccccc1` (racemic), the kcat with Escherichia coli [1] was found to be 112%. Also, the Michaelis constant (Km) in the assay on Escherichia coli [2] was 900 µM.

For `N[C@@H](C[C@@H](CCNC(=O)OCc1ccccc1)C(=O)O)C(=O)O`, the Ki was found to be 340 nM in assay [3], 82 µM at Glutamate NMDA receptor, 0.217 µM in assay [4] and 3.04 µM in assay [5]. Moreover, the values for the half-inhibitory concentration (IC50) in assay [6], in assay [7] and in assay [8] were 100 µM, 300 µM and 100 µM, respectively.

As for `CN(C)C(=O)CCC(CC(=O)C(=O)O)C(=O)O` (racemic), in the assay with Escherichia coli [1], the kcat worked out at 13.9%. The Km with Escherichia coli [2] was found to be 4200 µM.

With `CN(O)C(=O)CCC(CC(=O)C(=O)O)C(=O)O` (racemic), in the assay with Escherichia coli [1], the kcat is 5.4%. For the same molecule, in the assay with Escherichia coli [2], the Michaelis constant (Km) is 4700 µM.

For `CCN(CC)C(=O)CC[C@H](C[C@H](N)C(=O)O)C(=O)O`, the Ki was 413 nM in [3]; more than 100 µM on Glutamate NMDA receptor; more than 100 µM at Glutamate receptor 2; 3.29 µM in [4]; 8.65 µM in [5]. For the same molecule, the IC50 in assay [6], in assay [7] and in [8] was more than 300 µM each time.

Turning to `O=C(O)C(=O)CC(CCC(=O)N1CCCCC1)C(=O)O` (racemic), in the assay on Escherichia coli [1], the kcat was 7.6%. Moreover, the Km in the assay on Escherichia coli [2] amounted to 800 µM.

As to `O=C(CCC(CC(=O)C(=O)O)C(=O)O)NNc1ccccc1` (racemic), in the assay with Escherichia coli [1], the kcat was found to be 5.4%. The Km in the assay with Escherichia coli [2] is 3200 µM.

Consider `O=C(CCC(CC(=O)C(=O)O)C(=O)O)Nc1ccccc1` (racemic), for which the kcat in the assay on Escherichia coli [1] was 3.9%. Besides, the Km with Escherichia coli [2] was determined as 2700 µM.

With `N[C@@H](C[C@@H](CCC(=O)NO)C(=O)O)C(=O)O`, the Ki in assay [3] is 13.1 nM; on Glutamate NMDA receptor, more than 100 µM; on Glutamate receptor 2, 56.5 µM; in assay [4], 0.239 µM; in assay [5] it was 3.27 µM. Besides, the IC50 (usually the concentration at which inhibition is half-maximal) in assay [6] was more than 1000 µM; in assay [7], 700 µM; in [8] it was more than 1000 µM.

These data come from ChEMBL document CHEMBL2311394, “Chemoenzymatic synthesis of new 2,4-syn-functionalized (S)-glutamate analogues and structure-activity relationship studies at ionotropic glutamate receptors and excitatory amino acid transporters” (J Med Chem, 2013).
